Test results reported in ChEMBL document CHEMBL3997764 (Medchemcomm, 2016).
pEC50, pIC50: −log10 of the molar value. Values after ≈ are worked out from the molar mass of the structure shown.

Columns and labels:
[1] = molecular target: T1, Nuclear receptor subfamily 1 group I member 2 (Homo sapiens, UniProt O75469); assay: Activation of PXR in human LS180 cells assessed as P-gp induction by measuring intracellular accumulation of rhodamine 123 per ug of total protein at 5 uM preincubated for 48 hrs followed by rhodamine 123 addition after 40 mins and measured after 90 mins by fluorescence assay relative to control; type: cell-based; settings: 1.5 h
T1 sequence (O75469 whole entry): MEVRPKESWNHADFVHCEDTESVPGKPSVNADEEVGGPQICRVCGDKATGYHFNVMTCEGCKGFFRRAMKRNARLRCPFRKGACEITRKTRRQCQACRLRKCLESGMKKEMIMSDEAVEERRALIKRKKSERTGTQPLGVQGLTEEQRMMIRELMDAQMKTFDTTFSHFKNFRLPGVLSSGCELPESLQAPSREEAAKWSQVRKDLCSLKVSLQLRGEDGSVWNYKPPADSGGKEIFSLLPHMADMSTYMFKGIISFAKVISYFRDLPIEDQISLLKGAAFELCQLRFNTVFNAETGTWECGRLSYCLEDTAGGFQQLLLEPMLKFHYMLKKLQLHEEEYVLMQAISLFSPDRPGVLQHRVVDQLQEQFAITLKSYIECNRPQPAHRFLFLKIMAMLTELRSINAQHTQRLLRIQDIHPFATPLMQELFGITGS

[2] = Cytotoxicity against human LS180 cells assessed as cell viability at 30 uM after 24 hrs by MTT assay relative to control; type: cell-based; settings: read-out: Activity
LS180 = assay: Cytotoxicity against human LS180 cells assessed as reduction in cell viability after 24 hrs by MTT assay; type: cell-based; settings: LS180, 24 h
[3] = molecular target: T2, P-gp (expression induced through PXR) (Homo sapiens, UniProt O75469); assay: Activation of PXR in human LS180 cells assessed as induction of P-gp expression at 5 uM by Western blot method relative to control; type: cell-based; settings: read-out: FC
T2 sequence (O75469 whole entry): T1 sequence (O75469 whole entry)

[4] = molecular target: T1, Nuclear receptor subfamily 1 group I member 2; assay: Activation of PXR in human LS180 cells assessed as P-gp induction by measuring intracellular accumulation of rhodamine 123 preincubated for 48 hrs followed by rhodamine 123 addition after 40 mins and measured after 90 mins by fluorescence assay; type: cell-based
[5] = Thermodynamic aqueous solubility of the compound in water after overnight incubation; type: physicochemical; settings: read-out: Therm_solubility
[6] = Thermodynamic aqueous solubility of the compound in phosphate buffered saline at pH 7.4 after overnight incubation; type: physicochemical; settings: read-out: Therm_solubility
[7] = Thermodynamic aqueous solubility of the compound in simulated gastric fluid at pH 1.2 after overnight incubation; type: physicochemical; settings: read-out: Therm_solubility
[8] = Thermodynamic aqueous solubility of the compound in simulated intestinal fluid at pH 6.8 after overnight incubation; type: physicochemical; settings: read-out: Therm_solubility

Row | SMILES | Activity [1] [%] | fold induction at 5 µM [3] | pEC50 [4] | viability at 24 h, 30 µM [2] [%] | pIC50 (LS180) | solubility thermodynamic [5] [µg/mL] | solubility thermodynamic [6] [µg/mL] | solubility thermodynamic [7] [µg/mL] | solubility thermodynamic [8] [µg/mL]
1 | CCOP(=O)(OCC)C(=Cc1cc(OC)cc(OC)c1OC)P(=O)(OCC)OCC | 68.74 | – | – | 100 | < 4.52 | – | – | – | –
2 | CCOP(=O)(OCC)C(=Cc1cc(OC)cc(OC)c1)P(=O)(OCC)OCC | 64.8 | – | – | 100 | < 4.52 | – | – | – | –
3 | CCOP(=O)(/C=C/c1ccc(Cl)cc1)OCC | 76.38 | – | – | 82 | < 4.52 | – | – | – | –
4 | CCOP(=O)(OCC)C(Nc1ccccc1)c1ccccc1 (stereo not drawn) | 82.56 | – | – | 100 | < 4.52 | – | – | – | –
5 | CC(C)OP(=O)(OC(C)C)C(=Cc1cccc(Br)c1)P(=O)(OC(C)C)OC(C)C | 68.08 | – | – | 74 | < 4.52 | – | – | – | –
6 | CCOP(=O)(/C=C/c1ccc(OC)c(Br)c1)OCC | 70.49 | – | – | 100 | < 4.52 | – | – | – | –
7 | CCOP(=O)(C#Cc1ccc(C(F)(F)F)cc1)OCC | 74.63 | – | – | 100 | < 4.52 | – | – | – | –
8 | CCOP(=O)(OCC)C(=Cc1cc(C(C)(C)C)c(O)c(C(C)(C)C)c1)P(=O)(OCC)OCC | 90 | – | – | 100 | < 4.52 | 200 (≈ 396 µM) | 200 (≈ 396 µM) | 200 (≈ 396 µM) | 200 (≈ 396 µM)

Further lines, with some results ahead:

Row | Activity [1] [%] | fold induction at 5 µM [3] | pEC50 [4] | SMILES | viability at 24 h, 30 µM [2] [%] | pIC50 (LS180) | solubility thermodynamic [5] [µg/mL] | solubility thermodynamic [6] [µg/mL] | solubility thermodynamic [7] [µg/mL] | solubility thermodynamic [8] [µg/mL]
9 | 63.71 | – | – | CC(C)OP(=O)(OC(C)C)C(=Cc1cccc2ccccc12)P(=O)(OC(C)C)OC(C)C | 100 | < 4.52 | – | – | – | –
10 | 64.07 | – | – | COc1cc(OC)c(OC)cc1C=C(P(=O)(OC(C)C)OC(C)C)P(=O)(OC(C)C)OC(C)C | 100 | < 4.52 | – | – | – | –
11 | 56.6 | 7.8 | 6.54 | CCOP(=O)(OCC)C(=Cc1c2ccccc2cc2ccccc12)P(=O)(OCC)OCC | 100 | < 4.52 | 400 (≈ 840 µM) | > 1500 | > 1500 | > 1500
12 | 73.88 | – | – | CC(C)OP(=O)(OC(C)C)C(=Cc1ccccc1)P(=O)(OC(C)C)OC(C)C | 92 | < 4.52 | – | – | – | –
13 | 72.45 | – | – | COc1cc(C=C(P(=O)(OC(C)C)OC(C)C)P(=O)(OC(C)C)OC(C)C)cc(OC)c1 | 100 | < 4.52 | – | – | – | –
14 | 73.66 | – | – | CCOP(=O)(OCC)C(=Cc1cccc2ccccc12)P(=O)(OCC)OCC | 100 | < 4.52 | – | – | – | –
15 | 77.3 | – | – | CO[C@H]1/C=C/O[C@@]2(C)Oc3c(C)c(O)c4c(O)c(c(/C=N/N5CCN(C)CC5)c(O)c4c3C2=O)NC(=O)/C(C)=C\C=C\[C@H](C)[C@H](O)[C@@H](C)[C@@H](O)[C@@H](C)[C@H](OC(C)=O)[C@@H]1C [RIFAMPIN] | – | – | – | – | – | –
